# Data as given in patent US6004955A, “Cyclic carbamates and isoxazolidines as IIb/IIIa antagonists” (DuPont Pharmaceuticals Company, priority 1998, dated 1999).
# Tested on: platelet aggregation (using platelet rich plasma (PRP))
# Experiment: Platelet Aggregation Assay (without esterase)
# Assay type: cell-based
# Conditions: human platelet rich plasma
# Protocol: Platelet Aggregation Assay: Venous blood was obtained from the arm of a healthy human donor who was drug-free and aspirin-free for at least two weeks prior to blood collection. Blood was collected into 10 mL citrated Vacutainer tubes. The blood was centrifuged for 15 minutes at 150×g at room temperature, and platelet-rich plasma (PRP) was removed. The remaining blood was centrifuged for 15 minutes at 1500×g at room temperature, and platelet-poor plasma (PPP) was removed. Samples were assayed on a aggregometer (PAP-4 Platelet Aggregation Profiler), using PPP as the blank (100% transmittance). 200 μL of PRP was added to each micro test tube, and transmittance was set to 0%. 20 μL of various agonists (ADP, collagen, arachidonate, epinephrine, thrombin) were added to each tube, and the aggregation profiles were plotted (% transmittance versus time). The results are expressed as % inhibition of agonist-inducedplatelet aggregation. For the IC50 evaluation, the test compounds were added at various concentrations prior to the activation of the platelets.
# Table A below sets forth the antiplatelet activity of representative compounds of the present invention. The indicated compounds were tested for their ability to inhibit platelet aggregation (using platelet rich plasma (PRP)). The IC50 value (the concentration of antagonist which inhibits platelet aggregation by 50% relative to a control lacking the antagonist) is shown. In Table 5 the IC50 values are expressed as: +++=IC50 of <10 μM (μM=micromolar).
row,SMILES,IC50 [µM]
1,"Cc1cccc(S(=O)(=O)N[C@@H](CNC(=O)CC2CC(c3ccc(C(=N)N)cc3)N(Cc3ccccc3)C(=O)O2)C(=O)O)c1 (stereo partly drawn) [Example 322, Cis-3-[[[4-[4-(aminoiminomethyl)phenyl]tetrahydro-3-benzyl-2-oxo-2H-1,3-oxazin-6-yl]acetyl]amino]-N-[(3-methylphenyl)sulfonyl]-L-alanine monohydrogenchloride]",< 10
2,"Cc1ccccc1S(=O)(=O)N[C@@H](CNC(=O)CC1CC(c2ccc(C(=N)N)cc2)N(C)C(=O)O1)C(=O)O (stereo partly drawn) [Example 328, Cis-3-[[[4-[4-(aminoiminomethyl)phenyl]tetrahydro-3-methyl-2-oxo-2H-1,3-oxazin-6-yl]acetyl]amino]-N-[(2-methylphenyl)sulfonyl]-L-alanine monohydrogenchloride]",< 10
3,"Cc1noc(C)c1S(=O)(=O)N[C@@H](CNC(=O)CC1CC(c2ccc(C(=N)N)cc2)N(C)C(=O)O1)C(=O)O (stereo partly drawn) [Example 336, Cis-3-[[[4-[4-(aminoiminomethyl)phenyl]tetrahydro-3-methyl-2-oxo-2H-1,3-oxazin-6-yl]acetyl]amino]-N-[(3,5-dimethylisoxazol-4-yl)sulfonyl]-L-alanine monohydrogenchloride]",< 10
4,"CCCCOC(=O)N[C@@H](CNC(=O)CC1CC(c2ccc(C(=N)N)cc2)N(C)C(=O)O1)C(=O)O (stereo partly drawn) [Example 356, Cis-3-[[[4-[4-(aminoiminomethyl)phenyl]tetrahydro-3-methyl-2-oxo-2H-1,3-oxazin-6-yl]acetyl]amino]-N-(n-butyloxycarbonyl)-L-alanine monohydrogenchloride]",< 10
